Tested on: potato tuber pieces containing at least one active meristem (wild-type and tps)
Experiment: Sprouting of cut tuber pieces incubated on gibberellic acid solutions
Assay type: in vivo, Solanum tuberosum Var. Kardal
Conditions: 1, 10 or 1000 ppm solution, 10 min incubation
Protocol: Pat-TPS plants (Var. […]) derived from tissue culture plants were grown in the phytochamber under 500 μmol quanta m-2 s-1 (16 h light, 20° C.; 8 h dark (15° C.)). Tubers were harvested after three months and stored in the cold (4° C.) for 2 months. Three days after transfer to room temperature (RT), tuber pieces were cut with a knife containing at least one active meristem (eye). Cut pieces originating from 3-10 tubers per line were washed for 15 min in tap water. Approximately 6-10 pieces were subsequently incubated for 10 min on either water or on a 1, 10 or 1000 ppm solution of gibberellic acid (GA3, SIGMA, Zwijndrecht, Netherlands). All pieces from one treatment were transferred to containers onto wet paper tissue and covered with a plastic top to prevent drying out.

C=C1C[C@]23C[C@@]1(O)CC[C@H]2[C@@]12C=C[C@H](O)[C@@](C)(C(=O)O1)[C@H]2[C@@H]3C(=O)O [GA3, gibberellic acid]
time until sprouting occurred (tps tuber pieces): ≤ 4 days
time until sprouting occurred (wild-type tuber pieces): ≤ 4 days
